# Test results: EPA's ToxValDB 9.5
# “And” between values parts separate entries of the source, which are not always exact repeats. Equal entries are not always repeated.
# Tests used:
# Rattus norvegicus [1] = details: oral; for LEL / NOEL / LOAEL: M/F
# Mus musculus = details: acute
# Rattus norvegicus [2] = details: for LD50 / LC50: acute
# Rattus norvegicus [3] = details: subchronic; duration: 13 weeks; oral; gavage; M/F; Fischer 344; Deaths + Body Weight Changes: decrease + Histopathology: Brain/cerebellum -Degeneration Brain/cerebellum -Necrosis Brain/cerebellum -…
# [4] = reproduction developmental, Increased incidence of hepatocellular changes including fatty change and vacuolation (M) increased susceptibility to stress factors (F)
# [5] = subchronic, duration: 90 days, diet, reduced body weight
# [6] = developmental, reduced pup weight
# [7] = subchronic, forestomach lesions, kidney toxicity
# [8] = chronic, duration: 2 years, diet, reduced body weight gain (males) increased food and water consumption (males) and females
# [9] = developmental, reduced body weight in parents and pups during lactation
# [10] = chronic, kidney damage and reduced lifespan
# [11] = chronic, duration: 2 years, diet, hematological effects (females)
compound,measurement,setting,value
[O]=[V](=[O])[O][V](=[O])=[O] [Vanadium oxide (V2O5)],NOAEL,"Rattus norvegicus [1]; chronic, reduced hair cystine",0.89 mg/kg-day
CC(C)C(O)(c1ccc(OC(F)(F)F)cc1)c1cncnc1 (centres undefined) [Flurprimidol],LEL,Rattus norvegicus [1]; [4],7.3 mg/kg-day
same,NOEL,Rattus norvegicus [1]; [4],1.8 mg/kg-day
NS(=O)(=O)[O-].[NH4+] [Ammonium sulfamate],LEL,Rattus norvegicus [1]; [5],500 mg/kg-day
same,NOEL,Rattus norvegicus [1]; [5],250 mg/kg-day and 214 mg/kg-day
CCCCC(CC)COC(=O)CCCCCCCCC(=O)OCC(CC)CCCC (centres undefined) [Bis(2-ethylhexyl) decanedioate],LD50,"Mus musculus; oral, gavage",9500 mg/kg
same,LD50,"Rattus norvegicus [2]; oral, gavage",17000 mg/kg
C=CC(=O)OCCN(C)C [2-(Dimethylamino)ethyl acrylate],LD50,"Mus musculus; injection, Intraperitoneal, NMRI",200 mg/kg
same,LC50,"Rattus norvegicus [2]; Inhalation, Sprague-Dawley",0.066 µg/mL
same,LD50,Rattus norvegicus [2]; dermal,891 mg/kg
same,LD50,"Rattus norvegicus [2]; dermal, semiocclusive, Sprague-Dawley",419 mg/kg
same,LC50,Rattus norvegicus [2]; inhalation,0.22 µg/mL and < 0.352 µg/mL
same,LC50,"Rattus norvegicus [2]; inhalation, Wistar",0.972 µg/mL
same,LD50,"Rattus norvegicus [2]; injection, Intraperitoneal",183 mg/kg
same,LD50,Rattus norvegicus [2]; oral,533 mg/kg
same,NOAEL,"Rattus norvegicus [2]; developmental, oral, gavage, Crj:CD",30 mg/kg-day
same,NOAEL,"Rattus norvegicus [2]; reproduction developmental, duration: 43 days, oral, gavage, Sprague-Dawley",20 mg/kg-day
same,NOAEL,"Rattus norvegicus [2]; reproduction developmental, duration: 43 days, oral, gavage, Sprague-Dawley, generation: F0",100 mg/kg-day
same,NOAEL,"Rattus norvegicus [2]; subchronic, duration: 13 weeks, oral, gavage, Sprague-Dawley",10 mg/kg-day
C=C(C)[C@H]1Cc2c(ccc3c2O[C@@H]2COc4cc(OC)c(OC)cc4[C@@H]2C3=O)O1 [Rotenone],LEL,Rattus norvegicus [1]; [6],1.88 mg/kg-day
same,NOEL,Rattus norvegicus [1]; [6],0.38 mg/kg-day
"ClCC(Cl)(Cl)Cl [1,1,1,2-Tetrachloroethane]",LOAEL,"Rattus norvegicus [1]; chronic, gavage, mineralization of the kidneys (males), hepatic clear cell change (females)",125 mg/kg-day
CCCCCCCCCCCCCCCCCCN [1-Octadecanamine],LD50,"Mus musculus; oral, gavage",1000 mg/kg
same,LD50,"Rattus norvegicus [2]; oral, gavage",1000 mg/kg and > 2000 mg/kg
same,LD50,"Rattus norvegicus [2]; oral, gavage, Sprague-Dawley",4800 mg/kg
same,LD50,"Rattus norvegicus [2]; oral, gavage, Wistar",≥ 2000 mg/kg
O=Cc1ccccc1 [Benzaldehyde],NOEL,Rattus norvegicus [3],200 mg/kg-day
same,LOAEL,Rattus norvegicus [1]; [7],400 mg/kg-day
same,NOEL,Rattus norvegicus [1]; [7],143 mg/kg-day and 200 mg/kg-day
CC1(C)[C@H](C(=O)O[C@H](C#N)c2cccc(Oc3ccccc3)c2)[C@@H]1C(Br)C(Br)(Br)Br (some centres undefined) [Tralomethrin],LEL,Rattus norvegicus [1]; [8],3 mg/kg-day
same,NOEL,Rattus norvegicus [1]; [8],0.75 mg/kg-day
same,LEL,Rattus norvegicus [1]; [9],3 mg/kg-day
same,NOEL,Rattus norvegicus [1]; [9],0.75 mg/kg-day
CCOC(=O)COC(=O)c1ccccc1C(=O)OCC [Ethyl phthalyl ethyl glycolate],LOAEL,Rattus norvegicus [1]; [10],2500 mg/kg-day
same,NOEL,Rattus norvegicus [1]; [10],250 mg/kg-day
"CCCCCCCCCCCCCCCCCC(=O)[O-].CCCCCCCCCCCCCCCCCC(=O)[O-].[Ba+2] [Octadecanoic acid, barium salt]",LD50,Mus musculus; oral,1830 mg/kg
"C1CSCCS1 [1,4-Dithiane]",LOAEL,"Rattus norvegicus [1]; subchronic, duration: 90 days, gavage, nasal olfactory lesions",105 mg/kg-day
CCNc1nc(NC(C)(C)C)nc(SC)n1 [Terbutryn],LEL,Rattus norvegicus [1]; [11],15 mg/kg-day
same,NOEL,Rattus norvegicus [1]; [11],0.1 mg/kg-day
